In PubChem BioAssay (NCI):
Several values for one entry are separate records, joined by “and”; a condition that tells them apart may be missing. Equal entries are not always repeated.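 Where inhibition never reached the appropriate level, the endpoint shown equals the highest concentration tested. Otherwise, values were interpolated linearly from a five-concentration, 48-hour dose response in 96-well plates. GI50: concentration for 50% inhibition of growth. At the TGI there is no net growth.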

Experiments:
Test in all cases: growth of human tumour cells (NCI), 48 h
[1] = system: IGROV1 ovarian
[2] = system: MDA-MB-231 breast
[3] = system: SW-620 colon
[4] = system: HL-60(TB) leukemia
[5] = system: ACHN renal
[6] = system: SK-OV-3 ovarian
[7] = system: NCI-H460 lung
[8] = system: K-562 leukemia
[9] = system: SR leukemia
[10] = system: DU-145 prostate

## Cc1cc(O)cc(C)c1/C=C/c1cncc(C(N)=O)c1
[1]
  GI50: 2.18 µM
  TGI: > 25 µM
[2]
  GI50: 2.15 µM
  TGI: > 25 µM
[3]
  GI50: 1.4 µM
  TGI: > 25 µM
[4]
  GI50: 2.29 µM
  TGI: > 12.9 µM
[5]
  GI50: 8.43 µM
  TGI: > 25 µM
[6]
  GI50: 3.66 µM
  TGI: > 17.6 µM
[7]
  GI50: 1.84 µM
  TGI: > 25 µM
[8]
  GI50: 1.06 µM
  TGI: > 25 µM
[9]
  GI50: 1.06 µM
  TGI: > 25 µM
[10]
  GI50: 5.15 µM
  TGI: > 25 µM

## C=C1C(=O)O[C@H]2C[C@@H]1CC/C(C)=C/CC/C(C)=C/CC[C@@]2(C)O
[1]
  GI50: 23.1 µM
  TGI: 74.2 µM
[2]
  GI50: 25.7 µM
  TGI: 53.7 µM
[3]
  GI50: 35 µM
  TGI: > 100 µM
[4]
  GI50: 20.7 µM
  TGI: 45.7 µM
[5]
  GI50: 55.3 µM
  TGI: > 100 µM
[6]
  GI50: > 100 µM
  TGI: > 100 µM
[7]
  GI50: > 100 µM
  TGI: > 100 µM
[8]
  GI50: 20 µM
  TGI: 50.2 µM
[9]
  GI50: 26.5 µM
  TGI: 63.6 µM
[10]
  GI50: 45.3 µM
  TGI: > 100 µM

## O=C(NC(=O)c1ccccc1[N+](=O)[O-])Nc1ccc(Oc2ncc(Cl)cn2)c([N+](=O)[O-])c1
[1]
  TGI: > 71.8 µM
[2]
  TGI: 63.1 µM
[3]
  TGI: > 100 µM
[4]
  TGI: 1.17 µM
[5]
  TGI: > 100 µM
[6]
  TGI: > 69.3 µM
[7]
  TGI: > 100 µM
[8]
  TGI: > 100 µM
[9]
  TGI: > 100 µM
[10]
  TGI: > 100 µM

## N#Cc1c(N)n2c(nc1=Nc1ccc(Cl)cc1)sc1cc(Cl)ccc12
[1]
  GI50: > 100 µM
  TGI: > 100 µM
[2]
  GI50: 7.28 µM
  TGI: 71 µM
[3]
  GI50: 3.42 µM
  TGI: > 100 µM
[4]
  TGI: > 100 µM
[5]
  GI50: 9 µM
  TGI: > 100 µM
[6]
  GI50: 7.14 µM and 5.3 µM
  TGI: > 100 µM
[7]
  GI50: 22 µM
  TGI: > 100 µM
[8]
  GI50: > 100 µM
  TGI: > 100 µM
[9]
  GI50: 2.26 µM
  TGI: > 100 µM
[10]
  GI50: > 100 µM
  TGI: > 100 µM

## Cc1nc(-c2nc(-c3ccc(OC(F)(F)F)cc3)no2)nn1Cc1cccc(N2CCC(S(C)(=O)=O)CC2)c1
[1]
  GI50: > 26.5 µM
  TGI: > 100 µM
[2]
  GI50: 17.6 µM
  TGI: > 100 µM
[3]
  GI50: > 46.9 µM
  TGI: > 100 µM
[4]
  TGI: > 49.5 µM
[5]
  GI50: > 26.7 µM
  TGI: > 65 µM
[6]
  GI50: 16.3 µM
  TGI: 89.8 µM
[7]
  GI50: 5.95 µM
  TGI: > 100 µM
[8]
  GI50: < 0.01 µM
  TGI: > 100 µM
[9]
  GI50: 0.397 µM
  TGI: 97.9 µM
[10]
  GI50: > 42.8 µM
  TGI: > 100 µM

## CN1CCC2(CC1)NC(=O)c1c(c3ccc(Cl)c(Cl)c3n1C)C2C#N (stereo not drawn)
[1]
  GI50: 2.31 µM
  TGI: 7.21 µM
[2]
  GI50: 5.19 µM
  TGI: 15.2 µM
[3]
  GI50: 8.48 µM
  TGI: 33.3 µM
[4]
  GI50: 3.91 µM
  TGI: > 22.6 µM
[5]
  GI50: 5.75 µM
  TGI: 19.4 µM
[6]
  GI50: 14.9 µM
  TGI: 32 µM
[7]
  GI50: 2.75 µM
  TGI: 14.3 µM
[8]
  GI50: 5.76 µM
  TGI: > 100 µM
[9]
  GI50: 1.65 µM
  TGI: 5.36 µM
[10]
  GI50: 6.01 µM
  TGI: 15.2 µM

## c1ccc2cc(NCNc3ccc4ccccc4c3)ccc2c1
[1]
  TGI: 35 µM
[2]
  TGI: 38.9 µM
[3]
  TGI: > 100 µM
[4]
  TGI: 3.79 µM
[5]
  TGI: 38 µM
[6]
  TGI: > 100 µM
[7]
  TGI: 28.9 µM
[8]
  TGI: 38.8 µM
[9]
  TGI: 31.4 µM
[10]
  TGI: 27.4 µM

## C[C@@H](NC(=O)/C(C#N)=C/c1ccc([N+](=O)[O-])cc1)c1ccccc1
[1]
  GI50: 2.9 µM
  TGI: 8.13 µM
[2]
  GI50: 2.3 µM
  TGI: 5.23 µM
[3]
  GI50: 1.83 µM
  TGI: 3.81 µM
[4]
  GI50: 2.42 µM
  TGI: 5.51 µM
[5]
  GI50: 1.76 µM
  TGI: 3.29 µM
[6]
  GI50: 8.33 µM
  TGI: 23.3 µM
[7]
  GI50: 2.58 µM
  TGI: 6.95 µM
[8]
  GI50: 2.75 µM
  TGI: 14 µM
[9]
  GI50: 1.73 µM
  TGI: 5.55 µM
[10]
  GI50: 2.07 µM
  TGI: 4.33 µM

## CC1(C)CC[C@]2(C(=O)O)CC[C@]3(C)C(=CC[C@@H]4[C@@]5(C)C[C@H](O)[C@H](O)[C@@](C)(C(=O)O)[C@@H]5CC[C@]43C)[C@@H]2C1
[1]
  TGI: > 100 µM
[2]
  TGI: > 100 µM
[3]
  TGI: > 100 µM
[4]
  TGI: > 31.6 µM
[5]
  TGI: > 100 µM
[6]
  TGI: > 100 µM
[7]
  TGI: > 100 µM
[8]
  TGI: > 100 µM
[9]
  TGI: > 100 µM
[10]
  TGI: > 100 µM

## O=C(/C(=C/c1ccc([N+](=O)[O-])cc1)SCc1ccc(Cl)cc1)c1ccc(F)cc1
[1]
  GI50: 3.93 µM
  TGI: 22.3 µM
[2]
  GI50: 2.14 µM
  TGI: 5.98 µM
[3]
  GI50: 1.71 µM
  TGI: 4.91 µM
[4]
  GI50: 2.82 µM
  TGI: 11.1 µM
[5]
  GI50: 1.76 µM
  TGI: 3.33 µM
[6]
  GI50: 16.6 µM
  TGI: 63.5 µM
[7]
  GI50: 5.79 µM
  TGI: 24.7 µM
[8]
  GI50: 2.45 µM
  TGI: > 100 µM
[9]
  GI50: 2.01 µM
  TGI: > 26.5 µM
[10]
  GI50: 13.8 µM
  TGI: > 57.3 µM
